Read-outs that look alike come from different tables or passages of the source.
Experiments:
S. pneumoniae Xen10 = assay: Time kill assay; format: cell-based, Streptococcus pneumoniae; conditions: daptomycin 1 μg/ml or vancomycin 2 μg/ml alone and with dexamethasone 100 μg/ml
Source text: Figure 1 Time kill assay. […] DP, daptomycin; VN, vancomycin; DX, dexamethasone.

[1] = human, 6 mg/kg q.d. intravenously (highest FDA-approved dose); no reference given; cited from earlier work
[2] = tested on: penicillin-resistant pneumococcal strains; conditions: cited from earlier work
Source text: Four studies of daptomycin treatment of experimental meningitis have been reported. […] Similarly, Gerber et al. reported bactericidal activity in a rabbit model of Staphyloco ...

[3] = tested on: Streptococcus pneumoniae A 66.1 serotype 3 (Xen 10); format: in vivo, mice
Experimental: This study was approved by the Institutional Animal Care and Use Committee of the Mayo Clinic, Rochester, Minnesota. Ninety-six 25–30 gram immunocompetent hairless mice were divided into three treatment groups. Sixteen hours prior to treatment, mice were anesthetized using ketamine and xylazine (45 mg/kg and 5 mg/kg I.M., respectively) and 3 × 10^4 cfu of bacteria in a 20 μl volume were inoculated into the cisterna magna. The time of treatment was selected as the latest time point at which antimicrobial treatment could realistically lead to recovery. […] At 20 hours post infection an additional dose of vancomycin 50 mg/kg was given to the vancomycin-treated animals. Mice not receiving vancomycin at 20 hours were injected with an equal volume of saline. At 16, 20, and 24 hours post infection, 8, 40 and 48 animals, respectively were re anesthetized and cerebrospinal fluid (CSF) was collected by way of puncture from the cisterna magna (using a 28 G 1/2 needle 0.3 × 13 mm from BD Microlance). CSF white-blood cell count was determined and bacterial burden was quantified in CSF by plating serial 10-fold dilutions in sterile isotonic saline onto blood agar plates. Results were expressed as log10 cfu/ml; the detection limit was 20 cfu/ml of CSF. Following collection of CSF, animals were euthanized with a lethal dose of pentobarbital, their brains collected and placed in 10% neutral buffered formalin.
Bacterial concentrations between treatment groups at each time point were compared using the student t-test. Correlation analysis between log10 bacterial CSF titers and log10 photons/second was calculated using SPSS statistical software. For inflammation, neuronal necrosis, and apoptosis scores, statistical analysis included a nonparametric Kruskal-Wallis test followed by a Dunn's test comparing all treatment groups using a confidence level of 95%.

[4] = Serum antibiotic concentration in mice after intraperitoneal dose (microbiological assay); format: in vivo; conditions: single dose, detection limit 0.5 μg/ml
Experimental: The 30 minute serum concentration of vancomycin or daptomycin in 25–30 gram immunocompetent hairless mice (Charles River Laboratories, Wilmington, MA) was determined following intraperitoneal injection of 40, 50 and 60 mg/kg vancomycin or 20, 30, 40 and 50 mg/kg daptomycin, respectively. Pharmacokinetic profiles were determined by injecting 50 mg/kg vancomycin or 25 mg/kg daptomycin intraperitoneally and obtaining serum samples 30, 60, 120, 180 and 240 minutes post injection. Drug activity was measured using a microbiological assay technique. Standard curves for serum drug level determination were performed by making drug dilutions in pooled mouse serum (Innovative Research, Incorporated, Southfield, MI). The reporter bacteria for the vancomycin and daptomycin bioassays were Bacillus subtilis and Micrococcus luteus, respectively. Zones of growth inhibition were measured to the nearest millimeter. The detection limit for both drugs was 0.5 μg/ml.

[5] = vancomycin 50 mg/kg intraperitoneally, bioassay with Bacillus subtilis

SMILES | in vitro bactericidal activity, effect of dexamethasone (S. pneumoniae Xen10) | serum Cmax [1] | release of [3H]choline (marker of cell wall lysis) ([2]; compared with ceftriaxone treatment) | penetration across inflamed meninges ([2]; rabbit, in vivo) | CSF titers at 24 hours post infection ([3]; mouse, in vivo) | drop of bacterial titers four hours after a single treatment ([3]; mouse, in vivo) | level at 4 h ([4]; hairless (immunocompetent), mouse, serum, ip, daptomycin 25 mg/kg intraperitoneally, bioassay with Micrococcus luteus) | level at 0.5 h ([4]; hairless (immunocompetent), mouse, serum, ip, daptomycin 25 mg/kg intraperitoneally, bioassay with Micrococcus luteus, read-out: serum concentration at 30 minutes) | drop of bacterial titers four hours after a single treatment ([3]; CSF, mice, accompanied by 1 mg/kg of dexamethasone, daptomycin 25 mg/kg or vancomycin 50 mg/kg i.p.) | CSF titers at 24 hours post infection ([3]; mice, vancomycin 50 mg/kg at 16 and 20 hours or daptomycin 25 mg/kg at 16 hours, i.p., with dexamethasone 1 mg/kg every 6 hours) | serum level at 30 minutes [4, 5] | serum level at 3 hours [4, 5]
CCCCCCCCCC(=O)N[C@@H](Cc1c[nH]c2ccccc12)C(=O)N[C@H](CC(N)=O)C(=O)N[C@@H](CC(=O)O)C(=O)N[C@@H]1C(=O)NCC(=O)N[C@@H](CCCN)C(=O)N[C@@H](CC(=O)O)C(=O)N[C@H](C)C(=O)N[C@@H](CC(=O)O)C(=O)NCC(=O)N[C@H](CO)C(=O)N[C@@H]([C@H](C)CC(=O)O)C(=O)N[C@@H](CC(=O)c2ccccc2N)C(=O)O[C@@H]1C [daptomycin] | not affected | 90 to 100 µg/mL | negligible | 6% | 3.9 log10 cfu/ml | 1.33 log10 | 16 µg/mL | 127 µg/mL | – | – | – | –
CN[C@H](CC(C)C)C(=O)N[C@H]1C(=O)N[C@@H](CC(N)=O)C(=O)N[C@H]2C(=O)N[C@H]3C(=O)N[C@H](C(=O)N[C@H](C(=O)O)c4cc(O)cc(O)c4-c4cc3ccc4O)[C@H](O)c3ccc(c(Cl)c3)Oc3cc2cc(c3O[C@@H]2O[C@H](CO)[C@@H](O)[C@H](O)[C@H]2O[C@H]2C[C@](C)(N)[C@H](O)[C@H](C)O2)Oc2ccc(cc2Cl)[C@H]1O [vancomycin] | not affected | – | – | – | – | – | – | – | 0.43 log10 | 3.4 log10 cfu/ml | 55 µg/mL | < 0.5 µg/mL
